US8309528B2, “Two pore channels as regulators of proliferation in cancer” (The Trustees of Columbia University in the City of New York, priority 2006, dated 2012)

Key:
human TREK-1 = target: T1, human TREK-1 (Homo sapiens, UniProt O95069); test: Patch clamp of TREK-1 current in CHO cells transfected with human TREK-1; format: cell-based; details: CHO cells heterologously expressing human TREK-1; ramp protocol -130 mV to +40 mV in 6 s
T1 construct: expressed in transfected cells; host or cells: CHO cells
T1 sequence (O95069 1-426): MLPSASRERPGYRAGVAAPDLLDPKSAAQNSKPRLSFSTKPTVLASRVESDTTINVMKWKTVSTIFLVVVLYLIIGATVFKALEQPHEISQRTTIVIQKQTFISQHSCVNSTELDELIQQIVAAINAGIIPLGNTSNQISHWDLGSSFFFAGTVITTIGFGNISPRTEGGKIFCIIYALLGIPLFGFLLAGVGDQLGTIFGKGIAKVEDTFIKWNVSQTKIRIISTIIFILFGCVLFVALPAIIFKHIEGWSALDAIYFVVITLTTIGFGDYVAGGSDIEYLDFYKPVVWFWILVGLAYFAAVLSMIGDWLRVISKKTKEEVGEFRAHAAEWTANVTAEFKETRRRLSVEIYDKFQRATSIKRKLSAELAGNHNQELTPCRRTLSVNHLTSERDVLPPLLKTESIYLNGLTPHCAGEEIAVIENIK
Description: (§1) FIG. 7. […] CHO cells were transfected with a plasmid encoding human TREK-1 and the current was studied by patch clamp. The current-voltage relation was determined using a ramp protocol that went from −130 mV to +40 mV in 6 s (after correction for the junction potential). Current was greater in the presence of meclofenamate. This is typical of 7 cells.
as §1, with “8.” for “7.”, “less” for “greater”, “trifluoperazine.” for “meclofenamate.”, “3” for “7”
(§2) CHO cells were transfected with a plasmid encoding human TREK-1 and the current was studied by patch clamp. The current-voltage relation was determined using a ramp protocol that went from −130 mV to +40 mV in 6 s (after correction for the junction potential). Current was greater in the presence of meclofenamate. This is typical of 7 cells.
as §2, with “less” for “greater”, “trifluoperazine.” for “meclofenamate.”, “3” for “7”

[1] = system: normal prostate epithelial cells (NPE) expressing TREK-1; test: MTT proliferation assay of normal prostate epithelial cells infected with TREK-1 adenovirus; format: cell-based; details: sipatrigine 10 μM; compared with NPE/TREK-1 and other groups; five paired experiments
Description: FIG. 3. Dominant-negative TREK-1 reduces proliferation of PC-3 cells. PC-3 cells were transfected with either dn-TREK (or a control vector (PEGFP) using GeneJammer (Stratagene) under standard conditions. Proliferation of these cells was measured using the MTT assay after the cells were plated at 1×10^5 cells/well in 96 well plates. Data are presented as the mean ±SEM of five experiments. * p<0.05 vs control and EGFP
FIG. 5. Expression of TREK-1 increases proliferation of normal prostate epithelial cells (NPE). Normal prostate epithelial cell cultures were obtained from Clonetics and infected with a TREK-1-containing adenovirus. Some virally infected cells were also treated with sipatrigine (10 μM), a TREK-1 blocker. Cell proliferation was assessed using the MTT assay as described in FIG. 3.
Normal prostate epithelial cell cultures were obtained from Clonetics and infected with a TREK-1-containing adenovirus. Some virally infected cells were also treated with sipatrigine (10 μM), a TREK-1 blocker. Cell proliferation was assessed using the MTT assay as described in FIG. 3.

Compound	Effect on TREK-1 current (human TREK-1)	Cell proliferation (MTT) of TREK-1-infected NPE [1]
Cc1ccc(Cl)c(Nc2ccccc2C(=O)O)c1Cl [Meclofenamate, Meclofenamic acid]	activates TREK-1 current	–
CN1CCN(CCCN2c3ccccc3Sc3ccc(C(F)(F)F)cc32)CC1 [Trifluoperazine]	inhibits TREK-1 current	–
CN1CCN(c2ncc(-c3cc(Cl)cc(Cl)c3Cl)c(N)n2)CC1 [sipatrigine]	–	no other groups were different
